Patent publication US6358921B1, “Antimicrobial peptide compositions and method” (priority 1996, dated 2002)
Like-named read-outs stand apart in the source and are kept apart here.

What was measured:
[1] = test system: E. faecalis; format: cell-based, Enterococcus faecalis
Method in brief: (§1)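 Antimicrobial activity is measured by a liquid-broth assay in LB at 37 °C overnight, starting from 5×10^5 CFU/mL. Values are minimal inhibitory concentrations, i.e. the lowest concentration that stops growth.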

[2] = test system: E. coli DC2; format: cell-based, Escherichia coli; settings: DC2
Method in brief: (§2)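 Minimum inhibitory concentrations come from a broth rather than agar assay, using LB medium, a final inoculum of 5×10^5 CFU/mL and overnight incubation at 37 °C. Values are in μg/ml.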

[3] = test system: S. aureus SAP0017; format: cell-based, Staphylococcus aureus
Method in brief: (§3)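 Liquid-broth microdilution: overnight LB cultures at 37 °C, diluted to a final inoculum of 5×10^5 CFU/mL with serial peptide dilutions, incubated overnight at 37 °C. MIC (μg/ml) is the lowest concentration that inhibited growth. Therapeutic index is the concentration giving complete hemolysis at 4 h divided by the MIC.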

[4] = test system: S. aureus K147; format: cell-based, Staphylococcus aureus
Method in brief: as §3

[5] = test system: E. coli UB1005; format: cell-based, Escherichia coli; settings: UB1005
Method in brief: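 Liquid-broth rather than agar method. Organisms: clinical isolates (C. albicans, S. epidermidis), environmental C. xerosis, wild-type E. coli UB1005.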

[6] = test system: S. epidermidis; format: cell-based, Staphylococcus epidermidis
Method in brief: (§4)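 Growth inhibition was scored after overnight culture at 37 °C in LB with peptide serial dilutions (inoculum 5×10^5 CFU/mL); MICs were the lowest inhibitory concentrations. Test strains were E. coli UB1005 (wild type), C. xerosis (environmental), and C. albicans and S. epidermidis (clinical isolates).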

[7] = test system: B. subtilis; format: cell-based, Bacillus subtilis
Method in brief: as §1

[8] = test system: C. Albicans; format: cell-based, Candida albicans
Method in brief: as §4

[9] = test system: human erythrocytes; assay: Hemolytic activity; format: cell-based
Procedure: Serial dilutions of the peptides in saline were prepared in round bottom microtitre plates using 100 μL volumes. Red blood cells were diluted with saline to 1/25 packed volume of cells and 50 μL added to each well. Plates were incubated with rocking at 37° C., and the concentration required for complete lysis determined visually after 4 h.

[10] = test system: P. aeruginosa H188; format: cell-based, Pseudomonas aeruginosa
Method in brief: as §1

[11] = test system: P. aeruginosa H187; format: cell-based, Pseudomonas aeruginosa
Method in brief: as §2

[12] = test system: C. xeroses; format: cell-based, Corynebacterium xerosis
Method in brief: as §4

[13] = test system: S. typhinurium C587; format: cell-based, Salmonella typhinurium
Method in brief: as §1

[14] = test system: S. typhinurium C610; format: cell-based, Salmonella typhinurium
Method in brief: as §1

[15] = Displacement of dansyl-polymyxin from LPS; format: binding, P. aeruginosa; settings: read-out: LPS binding affinity: peptide concentration to displace 50% of dansyl-polymyxin B from LPS; Tables 1, 4, 7
Method in brief: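 Peptides titrated into 3 μg/mL P. aeruginosa LPS with 2.5 μM dansyl-polymyxin (~90% site saturation) in 5 mM sodium HEPES, pH 7.0; fluorescence decrease recorded. I50 (50% probe displacement) taken from the x-intercept of a double-reciprocal plot of percent inhibition versus inhibitor concentration.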

SMILES	Minimum Inhibitory Concentration (activity) [2] [µg/mL]	Minimum Inhibitory Concentration (activity) [3] [µg/mL]	Minimum Inhibitory Concentration (activity) [4] [µg/mL]	Minimum Inhibitory Concentration (activity) [5] [µg/mL]	Hemolytic activity: peptide concentration for 100% lysis of human erythrocytes [9] [µg/mL]	Minimum Inhibitory Concentration (activity) [13] [µg/mL]	Minimum Inhibitory Concentration (activity) [14] [µg/mL]	Minimum Inhibitory Concentration (activity) [1] [µg/mL]	Minimum Inhibitory Concentration (activity) [6] [µg/mL]	Minimum Inhibitory Concentration (activity) [7] [µg/mL]	Minimum Inhibitory Concentration (activity) [8] [µg/mL]	IC50 [15] [µM]	Minimum Inhibitory Concentration (activity) ([10]; H188) [µg/mL]	Minimum Inhibitory Concentration (activity) ([11]; H187) [µg/mL]	Minimum Inhibitory Concentration (activity) [12] [µg/mL]	also measured
CC(C)C[C@@H]1NC(=O)[C@H](CCCCN)NC(=O)[C@H](C(C)C)NC(=O)[C@@H]2CCCN2C(=O)[C@@H](Cc2ccc(O)cc2)NC(=O)[C@H](CCCCN)NC(=O)[C@H](CC(C)C)NC(=O)[C@H](C(C)C)NC(=O)[C@H](CCCCN)NC(=O)[C@H](CC(C)C)NC(=O)[C@@H]2CCCN2C(=O)[C@@H](Cc2ccc(O)cc2)NC(=O)[C@H](CCCCN)NC(=O)[C@H](C(C)C)NC1=O [GS14na]	62	200	>200	37	>800	100	12.5	–	–	–	–	–	–	–	–	Minimum Inhibitory Concentration (activity) ([1]; E. faecalis): 200 µg/mL; Minimum Inhibitory Concentration (activity) ([6]; S. epidermidis): 50 µg/mL; Minimum Inhibitory Concentration (activity) ([7]; B. subtilis): >200 µg/mL; Minimum Inhibitory Concentration (activity) ([8]; C. Albicans): 100 µg/mL; Minimum Inhibitory Concentration (activity) ([10]; P. aeruginosa H188): 18 µg/mL; Minimum Inhibitory Concentration (activity) ([11]; P. aeruginosa H187): 75 µg/mL; Minimum Inhibitory Concentration (activity) ([12]; C. xeroses): 1.5 µg/mL
CC(C)C[C@@H]1NC(=O)[C@H](CCCCN)NC(=O)[C@H](C(C)C)NC(=O)[C@@H]2CCCN2C(=O)[C@@H](Cc2ccccc2)NC(=O)[C@H](CC(C)C)NC(=O)[C@H](CCCCN)NC(=O)[C@H](C(C)C)NC(=O)[C@H](CCCCN)NC(=O)[C@H](CC(C)C)NC(=O)[C@@H]2CCCN2C(=O)[C@@H](Cc2ccccc2)NC(=O)[C@H](C(C)C)NC(=O)[C@@H](CCCCN)NC1=O [Y2/F2]	1.5	9	12.5	6.2	40	9	3.1	6.2	3.1	12.5	3.1	59	3.1	17	1.5	–
CC(C)C[C@@H]1NC(=O)[C@H](CCCCN)NC(=O)[C@H](CC(C)C)NC(=O)[C@@H]2CCCN2C(=O)[C@@H](Cc2ccc(O)cc2)NC(=O)[C@H](CC(C)C)NC(=O)[C@@H](CCCCN)NC(=O)[C@H](CC(C)C)NC(=O)[C@H](CCCCN)NC(=O)[C@H](CC(C)C)NC(=O)[C@@H]2CCCN2C(=O)[C@@H](Cc2ccc(O)cc2)NC(=O)[C@H](CC(C)C)NC(=O)[C@H](CCCCN)NC1=O [V3/L3]	3.1	12.5	25	6.2	25	100	15	1.5	1.5	9	4	46	3.1	100	1	–
CC(C)C[C@@H]1NC(=O)[C@H](CCCCN)NC(=O)[C@H](C(C)C)NC(=O)[C@H](CCCCN)NC(=O)[C@@H]2CCCN2C(=O)[C@@H](Cc2ccc(O)cc2)NC(=O)[C@H](CCCCN)NC(=O)[C@H](CC(C)C)NC(=O)[C@H](CCCCN)NC(=O)[C@H](C(C)C)NC(=O)[C@@H](CCCCN)NC(=O)[C@@H]2CCCN2C(=O)[C@@H](Cc2ccc(O)cc2)NC(=O)[C@H](CCCCN)NC1=O [GS14invK1]	25	>200	>200	25	>800	150	62	>200	100	>200	200	43	9	12.5	6.2	–
CC(C)[C@@H]1NC(=O)[C@H](CCCCN)NC(=O)[C@H](C)NC(=O)[C@@H]2CCCN2C(=O)[C@@H](Cc2ccc(O)cc2)NC(=O)[C@H](C(C)C)NC(=O)[C@@H](CCCCN)NC(=O)[C@H](C)NC(=O)[C@H](CCCCN)NC(=O)[C@H](C(C)C)NC(=O)[C@@H]2CCCN2C(=O)[C@@H](Cc2ccc(O)cc2)NC(=O)[C@H](C)NC(=O)[C@H](CCCCN)NC1=O [L3/A3]	200	>200	>200	200	>800	>200	100	>200	>200	>200	>200	243	75	200	100	–
CC(C)C[C@@H]1NC(=O)[C@H](C(C)C)NC(=O)[C@H](CC(C)C)NC(=O)[C@@H]2CCCN2C(=O)[C@@H](Cc2ccc(O)cc2)NC(=O)[C@H](C(C)C)NC(=O)[C@H](CC(C)C)NC(=O)[C@H](C(C)C)NC(=O)[C@H](CCCCN)NC(=O)[C@H](CCCCN)NC(=O)[C@@H]2CCCN2C(=O)[C@@H](Cc2ccc(O)cc2)NC(=O)[C@H](CCCCN)NC(=O)[C@H](CCCCN)NC1=O [GS14napol]	4	200	>200	18	800	50	25	75	25	>200	37	98	9	50	1.2	–
CC(C)C[C@@H]1NC(=O)[C@H](CCCCN)NC(=O)[C@H](C(C)C)NC(=O)[C@H](CCCCN)NC(=O)[C@@H]2CCCN2C(=O)[C@@H](Cc2ccc(O)cc2)NC(=O)[C@H](CCCCN)NC(=O)[C@H](CC(C)C)NC(=O)[C@H](CCCCN)NC(=O)[C@@H](C(C)C)NC(=O)[C@H](CCCCN)NC(=O)[C@@H]2CCCN2C(=O)[C@@H](Cc2ccc(O)cc2)NC(=O)[C@H](CCCCN)NC1=O [GS14invV2]	50	–	>200	25	800	200	37	>200	100	>200	200	71	9	9	6.2	–
